The subject of data set [1] is rhinovirus type 1A (RV-1A). Nature of the data set: Tissue culture antiviral testing, RV-1A (viral cytopathic effect in HeLa cells). It is filed as cell-based. To be noted: Enterovirus, 48 and 72 hours post-treatment, read-out: Lowest concentration of compound necessary to cause a 50 percent reduction in cytopathic effect, RV-1A. The method, then:
(§1) Monolayered HeLa cells in 16 millimeter (mm) tissue culture dishes were treated with 1 ml of culture medium (Eagles medium supplemented with fetal calf serum) containing compound at 100, 50, 25, 12.5, 6.25 or 0 μg/ml. Culture mediums such as those described herein are more fully described in standard tests, as for example, Kuchler's Biochemical Methods in Cell Culture and Virology, Dowden, Hutchinson and Ross, Inc., Stroudsberg, PA (1977). Immediately following treatment, cells were challenged with 0.05 ml of rhinovirus type 1A (RV-1A), rhinovirus type 2 (RV-2) or coxsackie A21 virus (Cox A21) in culture medium. Cell controls received no virus.
(§2) **Lowest concentration of compound (μg/ml) necessary to cause a 50
(§3) percent reduction in cytopathic effect.
Background: Cytopathic effects are the visible damage that an infection or toxin causes in cultured cells.

Data set [2] deals with rhinovirus type 2 (RV-2). Nature of the data set: Tissue culture antiviral testing, RV-2 (viral cytopathic effect in HeLa cells). It is filed as cell-based. To be noted: Enterovirus, 48 and 72 hours post-treatment, read-out: Lowest concentration of compound necessary to cause a 50 percent reduction in cytopathic effect, RV-2. The method, then: as §1, §2, §3
Data set [3] can be described thus: Cytotoxicity in tissue culture (monolayered HeLa cells). The class given is cell-based. The settings on record: human, observed at 48 and 72 hours post-treatment, read-out: Cytotoxicity (concentration of compound found to be toxic to the cell). On the procedure: as §1
*Cytotoxicity figures represent the concentration of compound (μg/ml)
found to be toxic to the cell.

Data set [4] concerns coxsackie A21 virus (Cox A21). Nature of the data set: Tissue culture antiviral testing, Cox A21 (viral cytopathic effect in HeLa cells). To be noted: 48 and 72 hours post-treatment, read-out: Lowest concentration of compound necessary to cause a 50 percent reduction in cytopathic effect, Cox A21. It is filed as cell-based. The method, then:
as §1, §2, §3

For data set [5], the system named is Cox A21 virus. The data set can be described thus: Animal testing, mice challenged intraperitoneally with a normally lethal dose of Cox A21 virus. The class given is in vivo, Swiss male mice. The settings on record: 600 mg/kg PO; at the 95 percent confidence level. On the procedure: The subject compounds were also tested in animals as follows:
Swiss male mice, 10-12 g in weight, were challenged intraperitoneally (IP) with 0.2 ml of a normally lethal dose, i.e., a virus dose sufficient to cause .congruent.80-100 percent mortality in infected animals within 10 days of challenge, of Cox A21 virus in phosphate buffered saline containing 1 percent heat inactivated fetal calf serum. Three hours later, mice were treated orally (PO) with 0.2 ml of compound suspended in 0.5 percent hydroxypropyl methylcellulose (Methocel) or with 0.2 ml of Methocel alone. The test compounds were administered at a 30 milligram/milliliter (mg/ml) concentration, which is a 600 milligram/kilogram (mg/kg) dosage. Mice were counted daily for 7-10 days post-challenge and deaths recorded. A modified Mantel-Haenzel combined chi-square (X^2) procedure was used to determine significant difference between virus control and treated groups. Chi-square values greater than 3.84 are considered significant (95 percent confidence level) in this test.

Converted amounts (≈) assume the structure as drawn.

`O=[N+]([O-])c1cccc(CN(Cc2cccc([N+](=O)[O-])c2)c2ccc(S(=O)(=O)O)cc2)c1` [Example 1, 4-(Bis((3-nitrophenyl)methyl)amino)benzenesulfonic Acid]: the figures for the EC50 in data set [1], in data set [2] and in data set [4] were 6.25 µg/mL (≈ 14.1 µM), above 100 µg/mL and below 6.25 µg/mL, respectively. Also, the MCC in data set [3] is 25 µg/mL.
With `O=S(=O)(O)c1ccc(N(Cc2c(Cl)cccc2Cl)Cc2c(Cl)cccc2Cl)cc1` [Example 2, 4-(Bis((2,6-dichlorophenyl)methyl)amino)benzenesulfonic Acid], the EC50 in data set [1] was 6.25 µg/mL (≈ 12.7 µM); in data set [2], 12.5 µg/mL (≈ 25.4 µM); in data set [4], below 6.25 µg/mL. Further, in data set [3], the MCC was determined as 12.5 µg/mL.
Consider `O=S(=O)(O)c1ccc(N(Cc2ccc(F)cc2)Cc2ccc(F)cc2)cc1` [Example 3, 4-(Bis((4-fluorophenyl)methyl)amino)benzenesulfonic Acid], for which the EC50 in data set [1] was 12.5 µg/mL (≈ 32.1 µM); in data set [2], above 100 µg/mL; in data set [4], below 6.25 µg/mL. The “Antiviral activity in testing with mice (in words)” value (from here on “Antiviral activity in testing”) in data set [5] is given as “active antiviral compounds in testing with mice”. In addition, the MCC in data set [3] came out at 100 µg/mL.
Take `O=S(=O)(O)c1ccc(N(Cc2ccc(F)cc2)Cc2ccc(Cl)cc2)cc1` [Example 4, 4-(((4-Chlorophenyl)methyl)((4-fluorophenyl)-methyl)amino)benzenesulfonic Acid]: the EC50 was 50 µg/mL (≈ 123 µM) in data set [1], above 100 µg/mL in data set [2] and below 6.25 µg/mL in data set [4]. The “Antiviral activity in testing” value in data set [5] is listed as “active antiviral compounds in testing with mice”. Also, in data set [3], the MCC turned out to be 50 µg/mL.
As for `O=S(=O)(O)c1ccc(N(Cc2ccc(Cl)cc2)Cc2ccc(Cl)cc2)cc1` [Example 5, 4-(Bis((4-chlorophenyl)methyl)amino)benzenesulfonic Acid], the EC50 in data set [1] is 12.5 µg/mL (≈ 29.6 µM); in data set [2] it was above 100 µg/mL; in data set [4] it was below 6.25 µg/mL. Besides, the “Antiviral activity in testing” value in data set [5] is “active antiviral compounds in testing with mice”. Moreover, in data set [3], the MCC was found to be 25 µg/mL.
Regarding `O=S(=O)(O)c1ccc(N(Cc2cccc(Cl)c2)Cc2cccc(Cl)c2)cc1` [Example 6, 4-(Bis((3-chlorophenyl)methyl)amino)benzenesulfonic Acid], the figures for the EC50 in data set [1], in data set [2] and in data set [4] were above 50 µg/mL, above 100 µg/mL and below 6.25 µg/mL, respectively. Further, in data set [5], the “Antiviral activity in testing” value is listed as “active antiviral compounds in testing with mice”. Further, the MCC in data set [3] turned out to be 100 µg/mL.
Regarding `O=S(=O)(O)c1ccc(N(Cc2ccc(Br)cc2)Cc2ccc(Br)cc2)cc1` [Example 7, 4-(Bis((4-bromophenyl)methyl)amino)benzenesulfonic Acid], the EC50 in data set [1] is 12.5 µg/mL (≈ 24.5 µM); in data set [2], above 100 µg/mL; in data set [4] it was below 6.25 µg/mL. Besides, in data set [5], the “Antiviral activity in testing” value is given as “active antiviral compounds in testing with mice”. The MCC in data set [3] amounted to 25 µg/mL.
Turning to `O=S(=O)(O)c1ccc(N(Cc2ccccc2F)Cc2ccccc2F)cc1` [Example 8, 4-(Bis((2-fluorophenyl)methyl)amino)benzenesulfonic Acid], the EC50 in data set [1] is above 100 µg/mL; in data set [2] it was above 100 µg/mL; in data set [4], below 6.25 µg/mL. The MCC in data set [3] amounted to 100 µg/mL.
`O=S(=O)(O)c1ccc(N(Cc2cccc(F)c2)Cc2cccc(F)c2)cc1` [Example 9, 4-(Bis((3-fluorophenyl)methyl)amino)benzenesulfonic Acid]: the figures for the EC50 in data set [1], in data set [2] and in data set [4] were 50 µg/mL (≈ 128 µM), above 100 µg/mL and 12.5 µg/mL (≈ 32.1 µM), respectively. Moreover, in data set [5], the “Antiviral activity in testing” value is listed as “active antiviral compounds in testing with mice”. The MCC in data set [3] stood at 100 µg/mL.
